# In PubChem BioAssay AID2060501 (Molecular Pharmacology Branch, DTP, NCI, 2025):
# Test system: 282377-053-R-J1-PDC complex spheroids, viability
# Experiment: Anticancer human tumor 282377-053-R-J1-PDC patient-derived colon adenocarcinoma cell line growth inhibition [GQUAD]
# Conditions: for IC50: curve of first compound; for viability, T/C: stronger effect = lower value
# Method in brief: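 Multi-cell-type spheroids of tumor cells with HUVEC and mesenchymal stem cells, treated with drug combinations. Concentrations descend in half-log steps from near clinical Cmax, or from 10 microM where Cmax is unknown; viability read-out.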
# [1] = second compound 0.0316 µM, first compound 0.0316 µM
# [2] = second compound 0.0316 µM, first compound 0.1 µM
# [3] = second compound 0.0316 µM, first compound 0.316 µM
# [4] = second compound 0.0316 µM, first compound 1 µM
# [5] = second compound 0.0316 µM, first compound 3.16 µM
# [6] = second compound 0.0316 µM, first compound 10 µM
# [7] = second compound 0.1 µM, first compound 0.0316 µM
# [8] = second compound 0.1 µM, first compound 0.1 µM
# [9] = second compound 0.1 µM, first compound 0.316 µM
# [10] = second compound 0.1 µM, first compound 1 µM
# [11] = second compound 0.1 µM, first compound 3.16 µM
# [12] = second compound 0.1 µM, first compound 10 µM
# [13] = second compound 0.316 µM, first compound 0.0316 µM
# [14] = second compound 0.316 µM, first compound 0.1 µM
# [15] = second compound 0.316 µM, first compound 0.316 µM
# [16] = second compound 0.316 µM, first compound 1 µM
# [17] = second compound 0.316 µM, first compound 3.16 µM
# [18] = second compound 0.316 µM, first compound 10 µM
# [19] = second compound 1 µM, first compound 0.0316 µM
# [20] = second compound 1 µM, first compound 0.1 µM
# [21] = second compound 1 µM, first compound 0.316 µM
# [22] = second compound 1 µM, first compound 1 µM
# [23] = second compound 1 µM, first compound 3.16 µM
# [24] = second compound 1 µM, first compound 10 µM
# [25] = second compound 3.16 µM, first compound 0.0316 µM
# [26] = second compound 3.16 µM, first compound 0.1 µM
# [27] = second compound 3.16 µM, first compound 0.316 µM
# [28] = second compound 3.16 µM, first compound 1 µM
# [29] = second compound 3.16 µM, first compound 3.16 µM
# [30] = second compound 3.16 µM, first compound 10 µM
# [31] = second compound 10 µM, first compound 0.0316 µM
# [32] = second compound 10 µM, first compound 0.1 µM
# [33] = second compound 10 µM, first compound 0.316 µM
# [34] = second compound 10 µM, first compound 1 µM
# [35] = second compound 10 µM, first compound 3.16 µM
# [36] = second compound 10 µM, first compound 10 µM
# 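Also: spheroids exposed to compounds for 7 days before readout.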
# 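For viability, T/C in this document: percent of vehicle DMSO control viability with 100% = untreated-like growth.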
structure (smiles),measurement,setting,value
Cc1cccc(N(C)C(=O)C2C(O)CCN2c2nc(C)cc(C(F)(F)F)c2C#N)c1 (stereo unspecified) + Cc1cnc(CNC(=O)c2c(=O)c3ccc(N4CCCN(C)CC4)nc3n3c2sc2ccccc23)cn1,IC50,second compound 0.0316 µM,> 10 µM
same,IC50,second compound 0.1 µM,> 10 µM
same,IC50,second compound 0.316 µM,> 10 µM
same,IC50,second compound 1 µM,> 10 µM
same,IC50,second compound 3.16 µM,> 10 µM
same,IC50,second compound 10 µM,1.25 µM
same,"viability, T/C",[1],114%
same,"viability, T/C",[2],105%
same,"viability, T/C",[3],108%
same,"viability, T/C",[4],80.3%
same,"viability, T/C",[5],95.1%
same,"viability, T/C",[6],93.1%
same,"viability, T/C",[7],96.1%
same,"viability, T/C",[8],99.3%
same,"viability, T/C",[9],95.5%
same,"viability, T/C",[10],88%
same,"viability, T/C",[11],88.8%
same,"viability, T/C",[12],93.6%
same,"viability, T/C",[13],95%
same,"viability, T/C",[14],85.6%
same,"viability, T/C",[15],98.8%
same,"viability, T/C",[16],77%
same,"viability, T/C",[17],93.4%
same,"viability, T/C",[18],79.7%
same,"viability, T/C",[19],66.3%
same,"viability, T/C",[20],60.6%
same,"viability, T/C",[21],64.1%
same,"viability, T/C",[22],60.3%
same,"viability, T/C",[23],65.9%
same,"viability, T/C",[24],67.1%
same,"viability, T/C",[25],54.6%
same,"viability, T/C",[26],51%
same,"viability, T/C",[27],56.2%
same,"viability, T/C",[28],58.8%
same,"viability, T/C",[29],56.6%
same,"viability, T/C",[30],58.5%
same,"viability, T/C",[31],50.6%
same,"viability, T/C",[32],53.6%
same,"viability, T/C",[33],50.6%
same,"viability, T/C",[34],52.2%
same,"viability, T/C",[35],46.4%
same,"viability, T/C",[36],35.5%
Cn1ncnc1[C@H]1c2n[nH]c(=O)c3cc(F)cc(c23)N[C@@H]1c1ccc(F)cc1 + Cc1cnc(CNC(=O)c2c(=O)c3ccc(N4CCCN(C)CC4)nc3n3c2sc2ccccc23)cn1,IC50,second compound 0.0316 µM,> 0.316 µM
same,IC50,second compound 0.1 µM,> 0.316 µM
same,IC50,second compound 0.316 µM,> 0.316 µM
same,IC50,second compound 1 µM,0.285 µM
same,IC50,second compound 3.16 µM,0.0327 µM
same,IC50,second compound 10 µM,< 0.000999 µM
same,"viability, T/C","second compound 0.0316 µM, first compound 0.000999 µM",111%
same,"viability, T/C","second compound 0.0316 µM, first compound 0.00316 µM",87.7%
same,"viability, T/C","second compound 0.0316 µM, first compound 0.00999 µM",104%
same,"viability, T/C",[1],107%
same,"viability, T/C","second compound 0.0316 µM, first compound 0.0999 µM",95.9%
same,"viability, T/C",[3],102%
same,"viability, T/C","second compound 0.1 µM, first compound 0.000999 µM",109%
same,"viability, T/C","second compound 0.1 µM, first compound 0.00316 µM",101%
same,"viability, T/C","second compound 0.1 µM, first compound 0.00999 µM",98.7%
same,"viability, T/C",[7],94%
same,"viability, T/C","second compound 0.1 µM, first compound 0.0999 µM",115%
same,"viability, T/C",[9],116%
same,"viability, T/C","second compound 0.316 µM, first compound 0.000999 µM",86.1%
same,"viability, T/C","second compound 0.316 µM, first compound 0.00316 µM",84.1%
same,"viability, T/C","second compound 0.316 µM, first compound 0.00999 µM",88.4%
same,"viability, T/C",[13],93.2%
same,"viability, T/C","second compound 0.316 µM, first compound 0.0999 µM",79%
same,"viability, T/C",[15],71.9%
same,"viability, T/C","second compound 1 µM, first compound 0.000999 µM",65.7%
same,"viability, T/C","second compound 1 µM, first compound 0.00316 µM",66.1%
same,"viability, T/C","second compound 1 µM, first compound 0.00999 µM",52.5%
same,"viability, T/C",[19],62.5%
same,"viability, T/C","second compound 1 µM, first compound 0.0999 µM",51.5%
same,"viability, T/C",[21],49.4%
same,"viability, T/C","second compound 3.16 µM, first compound 0.000999 µM",56.6%
same,"viability, T/C","second compound 3.16 µM, first compound 0.00316 µM",47.2%
same,"viability, T/C","second compound 3.16 µM, first compound 0.00999 µM",51.5%
same,"viability, T/C",[25],49.5%
same,"viability, T/C","second compound 3.16 µM, first compound 0.0999 µM",52.3%
same,"viability, T/C",[27],46.2%
same,"viability, T/C","second compound 10 µM, first compound 0.000999 µM",43.3%
same,"viability, T/C","second compound 10 µM, first compound 0.00316 µM",44.1%
same,"viability, T/C","second compound 10 µM, first compound 0.00999 µM",52.4%
same,"viability, T/C",[31],45.1%
same,"viability, T/C","second compound 10 µM, first compound 0.0999 µM",51%
same,"viability, T/C",[33],46.7%
O=C(c1cc(Cc2n[nH]c(=O)c3ccccc23)ccc1F)N1CCN(C(=O)C2CC2)CC1 + Cc1cnc(CNC(=O)c2c(=O)c3ccc(N4CCCN(C)CC4)nc3n3c2sc2ccccc23)cn1,IC50,second compound 0.0316 µM,> 10 µM
same,IC50,second compound 0.1 µM,> 10 µM
same,IC50,second compound 0.316 µM,> 10 µM
same,IC50,second compound 1 µM,> 10 µM
same,IC50,second compound 3.16 µM,2.43 µM
same,IC50,second compound 10 µM,0.0701 µM
same,"viability, T/C",[1],103%
same,"viability, T/C",[2],100%
same,"viability, T/C",[3],140%
same,"viability, T/C",[4],92.9%
same,"viability, T/C",[5],90.6%
same,"viability, T/C",[6],89.2%
same,"viability, T/C",[7],106%
same,"viability, T/C",[8],121%
same,"viability, T/C",[9],93%
same,"viability, T/C",[10],84.9%
same,"viability, T/C",[11],110%
same,"viability, T/C",[12],92.3%
same,"viability, T/C",[13],84.2%
same,"viability, T/C",[14],91.9%
same,"viability, T/C",[15],74.6%
same,"viability, T/C",[16],89.8%
same,"viability, T/C",[17],95.6%
same,"viability, T/C",[18],73.3%
same,"viability, T/C",[19],61.2%
same,"viability, T/C",[20],55.8%
same,"viability, T/C",[21],54.7%
same,"viability, T/C",[22],61%
same,"viability, T/C",[23],60.8%
same,"viability, T/C",[24],54%
same,"viability, T/C",[25],60.8%
same,"viability, T/C",[26],51.1%
same,"viability, T/C",[27],59.2%
same,"viability, T/C",[28],52.3%
same,"viability, T/C",[29],46.2%
same,"viability, T/C",[30],48.6%
same,"viability, T/C",[31],52.9%
same,"viability, T/C",[32],47.4%
same,"viability, T/C",[33],47.7%
same,"viability, T/C",[34],48.9%
same,"viability, T/C",[35],40.1%
same,"viability, T/C",[36],46.6%
